# Measured values: patent US8367367B2, “Kit for positively detecting toxic material” (Samsung Electronics Co., Ltd., priority 2006, dated 2013)
# Read-outs that look alike come from different tables or passages of the source.
# Columns and labels:
# [1] = tested on: electron transfer system of the sub-mitochondrial particles; conditions: 10 min
# Experimental: FIG. 3A is a graph illustrating the pH values at one-minute intervals when 20 wt % of ethanol, (toxic material) and 20 wt % of sorbitol (non-toxic material) are added to sub-mitochondrial particles and an electron donor to cause reactions.
# FIGS. 5A and 5B illustrate an exemplary embodiment of a method of positively detecting toxic materials in which phenolphthalein is used as a pH indicator. FIG. 5A is a graph illustrating pH values at two-minute intervals when 20 wt % of ethanol (toxic material), 2.5 wt % of ethanol (toxic material), and 20 wt % of sorbitol (non-toxic material) were added to sub-mitochondrial particles and an electron donor to cause reactions. FIG. 5B is a graph and showing the final pH value of each reactant after the reaction solutions were allowed to react for 10 minutes according to the reaction described in FIG. 5A.
# [2] = tested on: electron transfer system of the sub-mitochondrial particles
# From the text: NaOH was adequately added to a pH indicator, phenol red, to adjust the pH to 10. […] The reaction resultants obtained by the above process and a phenol red solution were mixed together with the weight ratio of 1:1 to identify the color of the mixture solution.
final pH of the reaction resultant ([1]; 2.5 wt %),final pH of the reaction resultant ([1]; 20 wt %),color of the mixture solution (phenol red) [2],Structure (SMILES)
8.16,6.43,,CCO [ethanol]
,9.17,remain the same,OC[C@@H](O)[C@@H](O)[C@H](O)[C@@H](O)CO [sorbitol]
